What all share (test): growth of human tumour cells (NCI), 48 h
Assay [1] concerns ACHN renal.
Assay [2] concerns COLO 205 colon.
Assay [3] concerns HL-60(TB) leukemia.
The subject of assay [4] is IGROV1 ovarian.
Assay [5] deals with MDA-MB-231 breast.
The test system of assay [6] is OVCAR-4 ovarian.
Assay [7] deals with SF-539 CNS.
Assay [8] has as its system SK-OV-3 ovarian.
Assay [9] concerns SR leukemia.
The subject of assay [10] is T-47D breast.

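Interpolation was linear, between the two tested concentrations surrounding the appropriate level; five concentrations were tested over 48 hours in 96-well plates. GI50 marks 50% less growth. TGI denotes the concentration required for complete inhibition of growth.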 Some results are limits rather than exact numbers.

Take `COc1cc2c(c(OC)c1OC)-c1ccc(N=NC(N)=S)c(=O)cc1[C@@H](NC(C)=O)CC2`: the GI50 was 5.08 µM in [1]; 0.26 µM in [2]; 0.378 µM in assay [3]; 0.482 µM in assay [4]; 0.592 µM in [5]; 1.43 µM in assay [6]. Besides, the GI50 was 0.311 µM in [7], 0.43 µM in assay [8], 0.408 µM in assay [9] and 0.361 µM in assay [10]. Moreover, the TGI in [1] is over 100 µM; in assay [2] it was 0.682 µM; in assay [5], over 27.7 µM; in [6] it was over 100 µM; in assay [9], over 100 µM; in [10], over 100 µM.

As to `Cc1nc2ccccc2nc1N=Nc1ccccc1`, the GI50 in assay [1] is 16.9 µM; in assay [2], 0.291 µM; in [3] it was 20.6 µM; in assay [4] it was 9.58 µM; in assay [5], 16.2 µM; in [6] it was 16.5 µM. The GI50 in assay [7] was 27.9 µM; in [8] it was 34.9 µM; in assay [9], 19 µM; in assay [10] it was 10.1 µM. In addition, the TGI was over 100 µM in assay [1]; 1.91 µM in assay [2]; 56.6 µM in assay [3]; over 100 µM in assay [4]; 69.1 µM in [5]; over 100 µM in assay [6]. For the same compound, the TGI in [7] was over 100 µM; in assay [8], over 100 µM; in [9], over 100 µM; in assay [10], 67.7 µM.

Take `O=C(CCCN1CCC(C(O)c2ccc(F)cc2)CC1)c1ccc(F)cc1` (stereo unspecified): the TGI in [1] was 99.9 µM; in assay [2] it was 110 µM; in assay [3], 120 µM; in [4], 130 µM; in [5] it was 89.7 µM; in [6] it was 134 µM. The TGI in assay [7] was 113 µM; in assay [8], 138 µM; in assay [9], 201 µM; in [10], 137 µM.

For the compound `Cn1cc(C2=C(Nc3ccccc3)C(=O)NC2=O)c2ccccc21`, the GI50 in [1] was over 25 µM; in assay [2], over 25 µM; in [3], over 25 µM; in [4] it was over 25 µM; in assay [5], over 25 µM; in [6], over 21.8 µM. The GI50 is over 25 µM in [7], over 25 µM in assay [8], over 25 µM in assay [9] and 16.2 µM in assay [10]. Moreover, the TGI in assay [1], in [2], in [3], in assay [4], in [5] and in assay [6] was over 25 µM in each case. For the same compound, the TGI in assay [7], in [8], in assay [9] and in assay [10] was over 25 µM each time.

Consider `CC1(C)O[C@@H]2C[C@H]3[C@@H]4C[C@H](F)C5=CC(=O)C=C[C@]5(C)[C@@]4(F)[C@@H](O)C[C@]3(C)[C@]2(C(=O)CO)O1`, for which the TGI in assay [1], in assay [2], in [3], in assay [4], in [5] and in assay [6] was over 100 µM throughout. The TGI in assay [7], in [8], in assay [9] and in assay [10] was over 100 µM throughout.

For the compound `O=C1c2cccnc2C(=O)c2c1c(C(=O)OCCCN1CCCCC1)c1ccccn21`, the GI50 in assay [1] is under 0.01 µM; in assay [2] it was under 0.0128 µM; in assay [3], 0.122 µM; in assay [4], 0.0309 µM; in assay [5] it was 0.717 µM; in assay [6] it was 0.28 µM. For the same compound, the GI50 in assay [7] was under 0.0106 µM; in assay [8], under 0.01 µM; in [9], under 0.01 µM; in assay [10] it was 1.1 µM. Besides, the TGI in assay [1] was 0.0171 µM; in assay [2], 0.0303 µM; in [3] it was 7.5 µM; in assay [4] it was 0.686 µM; in assay [5] it was 13.9 µM; in assay [6] it was 2 µM. Also, the TGI was 0.0435 µM in [7], under 0.0199 µM in assay [8], over 100 µM in [9] and 21.5 µM in assay [10].

Take `O=C(CC1C=Cc2ccccc2N1C(=O)c1ccccc1)c1ccccc1` (stereo unspecified): the TGI in assay [1] was over 100 µM; in [2], 42.5 µM; in assay [3] it was 43.4 µM; in [4], over 100 µM; in [5], 94 µM; in assay [6] it was over 100 µM. Moreover, the TGI in assay [7] is 66.7 µM; in assay [8] it was over 100 µM; in [9], 35.4 µM; in assay [10], over 100 µM.

With `Cc1nc2cc(Nc3nc(Nc4ccc(F)cc4)nc(N4CCOCC4)n3)ccc2n1Cc1ccccc1`, the GI50 in [1] is 3.05 µM; in assay [2] it was 1.84 µM; in [3], 2.07 µM; in [4], 2.3 µM; in assay [5] it was 3.36 µM; in [6], 4.47 µM. Further, the GI50 in [7] was 3.54 µM; in [8], 10.5 µM; in assay [9], 2.4 µM; in assay [10] it was 3.88 µM. In addition, the TGI was determined as 13.1 µM in [1]; 3.33 µM in [2]; 4.73 µM in assay [3]; 5.87 µM in [4]; 14.7 µM in assay [5]; 41.8 µM in assay [6]. Besides, the TGI was 14.5 µM in [7], 25.1 µM in assay [8], 7.38 µM in assay [9] and over 100 µM in assay [10].

On to `CC(=O)OC1=CC2(OC(C)=O)CC(C)(C)C1C1C(=O)C=CC(=O)C12` (stereo unspecified), for which the TGI was 45.9 µM in [1]; over 65.7 µM in assay [2]; over 100 µM in assay [3]; over 100 µM in assay [4]; over 100 µM in assay [5]; over 100 µM in [6]. Also, the TGI in [7] was over 71 µM; in assay [8], over 100 µM; in assay [9], over 100 µM; in [10] it was over 100 µM.

The values above are taken from PubChem BioAssay (NCI).
